In ChEMBL document CHEMBL5724914, “Linking interpersonal differences in gut microbiota composition and drug biotransformation activity” (2024):

Experiments:
[1] = human gut metagenome, 24 h, 2 µM
[2] = human gut metagenome, 24 h, 2 µM; remark: listed apart in the source
[3] = The drug is tested on WLS-073 corresponding to human gut metagenome with ENA study accession number: PRJEB37062 and ENA sample accession number: ERS12561749 for biotransformation under anaerobic condition. The drug concentrations were measured over 9 timepoints collected between 0 and 24 hours of incubation by liquid-chromatography-coupled mass spectrometry (LC–MS); conditions: 2 µM
[4] = human gut metagenome, 24 h, 2 µM; remark: listed apart in the source
[5] = The drug is tested on WLS-098 corresponding to human gut metagenome with ENA study accession number: PRJEB37062 and ENA sample accession number: ERS12561754 for biotransformation under anaerobic condition. The drug concentrations were measured over 9 timepoints collected between 0 and 24 hours of incubation by liquid-chromatography-coupled mass spectrometry (LC–MS); conditions: 2 µM
[6] = The drug is tested on Z-022 corresponding to mouse gut metagenome with ENA study accession number: PRJEB37062 and ENA sample accession number: ERS12561821 for biotransformation under anaerobic condition. The drug concentrations were measured over 9 timepoints collected between 0 and 24 hours of incubation by liquid-chromatography-coupled mass spectrometry (LC–MS); conditions: 2 µM
[7] = human gut metagenome, 24 h, 2 µM; remark: listed apart in the source
[8] = human gut metagenome, 24 h, 2 µM; remark: listed apart in the source
[9] = The drug is tested on Z-005 corresponding to metagenome with ENA study accession number: PRJEB37062 and ENA sample accession number: ERS12561805 for biotransformation under anaerobic condition. The drug concentrations were measured over 9 timepoints collected between 0 and 24 hours of incubation by liquid-chromatography-coupled mass spectrometry (LC–MS); conditions: 2 µM
[10] = The drug is tested on WLS-006 corresponding to human gut metagenome with ENA study accession number: PRJEB37062 and ENA sample accession number: ERS12561741 for biotransformation under anaerobic condition. The drug concentrations were measured over 9 timepoints collected between 0 and 24 hours of incubation by liquid-chromatography-coupled mass spectrometry (LC–MS); conditions: 2 µM
[11] = human gut metagenome, 24 h, 2 µM; remark: listed apart in the source
[12] = human gut metagenome, 24 h, 2 µM; remark: listed apart in the source
[13] = The drug is tested on WLS-350 corresponding to human gut metagenome with ENA study accession number: PRJEB37062 and ENA sample accession number: ERS12561789 for biotransformation under anaerobic condition. The drug concentrations were measured over 9 timepoints collected between 0 and 24 hours of incubation by liquid-chromatography-coupled mass spectrometry (LC–MS); conditions: 2 µM
[14] = The drug is tested on Z-001 corresponding to mouse gut metagenome with ENA study accession number: PRJEB37062 and ENA sample accession number: ERS12561801 for biotransformation under anaerobic condition. The drug concentrations were measured over 9 timepoints collected between 0 and 24 hours of incubation by liquid-chromatography-coupled mass spectrometry (LC–MS); conditions: 2 µM
[15] = human gut metagenome, 24 h, 2 µM; remark: listed apart in the source
[16] = The drug is tested on Z-025 corresponding to rabbit gut metagenome with ENA study accession number: PRJEB37062 and ENA sample accession number: ERS12561824 for biotransformation under anaerobic condition. The drug concentrations were measured over 9 timepoints collected between 0 and 24 hours of incubation by liquid-chromatography-coupled mass spectrometry (LC–MS); conditions: 2 µM
[17] = The drug is tested on Z-030 corresponding to mouse gut metagenome with ENA study accession number: PRJEB37062 and ENA sample accession number: ERS12561829 for biotransformation under anaerobic condition. The drug concentrations were measured over 9 timepoints collected between 0 and 24 hours of incubation by liquid-chromatography-coupled mass spectrometry (LC–MS); conditions: 2 µM
[18] = The drug is tested on Z-017 corresponding to mouse gut metagenome with ENA study accession number: PRJEB37062 and ENA sample accession number: ERS12561816 for biotransformation under anaerobic condition. The drug concentrations were measured over 9 timepoints collected between 0 and 24 hours of incubation by liquid-chromatography-coupled mass spectrometry (LC–MS); conditions: 2 µM
[19] = The drug is tested on WLS-240 corresponding to human gut metagenome with ENA study accession number: PRJEB37062 and ENA sample accession number: ERS12561773 for biotransformation under anaerobic condition. The drug concentrations were measured over 9 timepoints collected between 0 and 24 hours of incubation by liquid-chromatography-coupled mass spectrometry (LC–MS); conditions: 2 µM
[20] = The drug is tested on WLS-038 corresponding to human gut metagenome with ENA study accession number: PRJEB37062 and ENA sample accession number: ERS12561745 for biotransformation under anaerobic condition. The drug concentrations were measured over 9 timepoints collected between 0 and 24 hours of incubation by liquid-chromatography-coupled mass spectrometry (LC–MS); conditions: 2 µM
Further: call rule not given here.

Structure (SMILES)	Bacterial Biotransformation [1]	Bacterial Biotransformation [2]	Bacterial Biotransformation [3]	Bacterial Biotransformation [4]	Bacterial Biotransformation [5]	Bacterial Biotransformation [6]	Bacterial Biotransformation [7]	Bacterial Biotransformation [8]	Bacterial Biotransformation [9]	Bacterial Biotransformation [10]	Bacterial Biotransformation [11]	Bacterial Biotransformation [12]	Bacterial Biotransformation [13]	Bacterial Biotransformation [14]	Bacterial Biotransformation [15]	Bacterial Biotransformation [16]	Bacterial Biotransformation [17]	Bacterial Biotransformation [18]	Bacterial Biotransformation [19]	Bacterial Biotransformation [20]
N=C(N)NC(=O)Cc1c(Cl)cccc1Cl [GUANFACINE]	Compound NOT metabolized	Compound NOT metabolized	Compound NOT metabolized	Compound NOT metabolized	Compound NOT metabolized	Compound NOT metabolized	Compound NOT metabolized	Compound NOT metabolized	Compound NOT metabolized	Compound NOT metabolized	Compound NOT metabolized	Compound NOT metabolized	Compound NOT metabolized	Compound NOT metabolized	Compound NOT metabolized	Compound NOT metabolized	Compound NOT metabolized	Compound NOT metabolized	Compound NOT metabolized	Compound NOT metabolized
CN(CCOc1ccc(CC2SC(=O)NC2=O)cc1)c1ccccn1.O=C(O)/C=C\C(=O)O (stereo not given) [ROSIGLITAZONE MALEATE]	Compound NOT metabolized	Compound metabolized	Compound NOT metabolized	Compound NOT metabolized	Compound metabolized	Compound NOT metabolized	Compound NOT metabolized	Compound NOT metabolized	Compound NOT metabolized	Compound metabolized	Compound metabolized	Compound metabolized	Compound metabolized	Compound NOT metabolized	Compound metabolized	Compound metabolized	Compound NOT metabolized	Compound NOT metabolized	Compound metabolized	Compound NOT metabolized
COc1ccnc(C[S+]([O-])c2nc3ccc(OC(F)F)cc3[nH]2)c1OC (stereo not given) [PANTOPRAZOLE]	Compound metabolized	Compound metabolized	Compound metabolized	Compound metabolized	Compound metabolized	Compound metabolized	Compound metabolized	Compound metabolized	Compound NOT metabolized	Compound metabolized	Compound metabolized	Compound metabolized	Compound metabolized	Compound NOT metabolized	Compound metabolized	Compound metabolized	Compound metabolized	Compound metabolized	Compound metabolized	Compound metabolized
CC(C)c1c(CN(C)C(C)Cc2ccccc2)n(C)n(-c2ccccc2)c1=O (stereo not given) [FAMPROFAZONE]	Compound metabolized	Compound metabolized	Compound metabolized	Compound metabolized	Compound metabolized	Compound metabolized	Compound metabolized	Compound metabolized	Compound metabolized	Compound metabolized	Compound metabolized	Compound metabolized	Compound metabolized	Compound metabolized	Compound metabolized	Compound NOT metabolized	Compound NOT metabolized	Compound NOT metabolized	Compound metabolized	Compound metabolized
CN1CCC(=C2c3ccccc3CC(=O)c3sccc32)CC1.O=C(O)/C=C/C(=O)O [KETOTIFEN FUMARATE]	Compound metabolized	Compound metabolized	Compound metabolized	Compound NOT metabolized	Compound metabolized	Compound NOT metabolized	Compound NOT metabolized	Compound NOT metabolized	Compound NOT metabolized	Compound metabolized	Compound metabolized	Compound metabolized	Compound NOT metabolized	Compound NOT metabolized	Compound metabolized	Compound NOT metabolized	Compound NOT metabolized	Compound NOT metabolized	Compound metabolized	Compound NOT metabolized
